Source: ChEMBL document CHEMBL5506008, “Synthesis and biological evaluation of 1-phenyl-tetrahydro-β-carboline-based first dual PRMT5/EGFR inhibitors as potential anticancer agents” (Eur J Med Chem, 2024)

Tests used:
Assay type in all cases: functional
[1] = test system: MCF7; assay: Induction of apoptosis in human MCF7 cells assessed as late apoptotic cells at 25 nM measured after 48 hrs by Annexin V-FITC staining based flow cytometry analysis (reference value: 0.14%)
[2] = test system: MCF7; assay: Induction of apoptosis in human MCF7 cells assessed as dead cells at 50 nM measured after 48 hrs by Annexin V-FITC staining based flow cytometry analysis (reference value: 0.02%)
[3] = test system: MCF7; assay: Induction of apoptosis in human MCF7 cells assessed as early apoptotic cells at 25 nM measured after 48 hrs by Annexin V-FITC staining based flow cytometry analysis (reference value: 0.58%)
[4] = test system: MCF7; assay: Induction of apoptosis in human MCF7 cells assessed as early apoptotic cells at 50 nM measured after 48 hrs by Annexin V-FITC staining based flow cytometry analysis (reference value: 0.58%)
[5] = test system: MCF7; assay: Induction of cell cycle arrest in human MCF7 cells assessed as accumulation of cells at S phase at 25 nM incubated for 48 hrs by PI/RNase staining based flow cytometry analysis (reference value: 44.87%)
[6] = test system: MCF7; assay: Induction of apoptosis in human MCF7 cells assessed as live cells at 50 nM measured after 48 hrs by Annexin V-FITC staining based flow cytometry analysis (reference value: 99.26%)
[7] = test system: MCF7; assay: Induction of cell cycle arrest in human MCF7 cells assessed as accumulation of cells at G2 phase at 25 nM incubated for 48 hrs by PI/Rnase staining based flow cytometry analysis (reference value: […]%)
[8] = test system: MCF7; assay: Induction of apoptosis in human MCF7 cells assessed as late apoptotic cells at 50 nM measured after 48 hrs by Annexin V-FITC staining based flow cytometry analysis (reference value: 0.14%)
[9] = test system: MCF7; assay: Induction of cell cycle arrest in human MCF7 cells assessed as accumulation of cells at G1 phase at 25 nM incubated for 48 hrs by PI/RNase staining based flow cytometry analysis (reference value: 48.01%)
[10] = test system: MCF7; assay: Induction of apoptosis in human MCF7 cells assessed as dead cells at 25 nM measured after 48 hrs by Annexin V-FITC staining based flow cytometry analysis (reference value: 0.02%)
[11] = test system: MCF7; assay: Induction of cell cycle arrest in human MCF7 cells assessed as accumulation of cells at G2 phase at 50 nM incubated for 48 hrs by PI/Rnase staining based flow cytometry analysis (reference value: […]%)
[12] = test system: MCF7; assay: Induction of apoptosis in human MCF7 cells assessed as live cells at 25 nM measured after 48 hrs by Annexin V-FITC staining based flow cytometry analysis (reference value: 99.26%)
[13] = test system: MCF7; assay: Induction of cell cycle arrest in human MCF7 cells assessed as accumulation of cells at S phase at 50 nM incubated for 48 hrs by PI/RNase staining based flow cytometry analysis (reference value: 44.87%)
[14] = test system: MCF7; assay: Induction of cell cycle arrest in human MCF7 cells assessed as accumulation of cells at G1 phase at 50 nM incubated for 48 hrs by PI/RNase staining based flow cytometry analysis (reference value: 48.01%)

## O=C(NC[C@H](O)CN1CCc2ccccc2C1)c1cc(NC2COC2)ncn1
[1]
  Activity: 0.83%
[2]
  Activity: 3.17%
[3]
  Activity: 1.41%
[4]
  Activity: 3.79%
[5]
  Activity: 43.56%
[6]
  Activity: 88.73%
[7]
  Activity: 0.13%
[8]
  Activity: 4.31%
[9]
  Activity: 56.22%
[10]
  Activity: 1.47%
[11]
  Activity: 9.98%
[12]
  Activity: 96.29%
[13]
  Activity: 22.78%
[14]
  Activity: 66.11%
